The results in this text go back to article PMC4503454, “A Lead-In with Silibinin Prior to Triple-Therapy Translates into Favorable Treatment Outcomes in Difficult-To-Treat HIV/Hepatitis C Coinfected Patients” (PLoS ONE, 2015).

The nature of data set [1]: Antiretroviral plasma trough levels before and during silibinin. Format: in vivo, human. The procedure:
Plasma samples obtained from HIV-HCV infected individuals were isolated by immediate centrifugation at 1850 X g (3000 rpm) and stored at -80°C. For the plasma quantification of antiretroviral drugs, samples were inactivated for virus at 60°C for 60 minutes. Plasma levels were determined by liquid chromatography coupled with tandem mass spectrometry (LC-MS/MS) after protein precipitation with acetonitrile according to our previously reported validated analytical method. The laboratory participates in an international external quality assurance program for antiretroviral drugs analysis (KKGT, Stichting Kwaliteitsbewaking Klinische Geneesmiddelanalyse en Toxicologie, Association for Quality Assessment in TDM and clinical Toxicology, The Hague, The Netherlands). Plasma trough levels for raltegravir (RAL), darunavir (DRV), atazanavir (ATV), and etravirine (ETV) were graphically extrapolated from measured concentrations, using population pharmacokinetic models previously published. Reference values for efavirenz (EFV) were adopted from a study from Marzolini et al.. The median trough concentrations for these agents in HIV-infected persons receiving the recommended dose are taken from the guidelines for the use of antiretroviral agents in HIV-1 infected adults and adolescents.
We used an intention-to-continue treatment approach to calculate virologic responses as percentage of patients with undetectable HCV-RNA, using all patients who started treatment as denominator. Plasma concentrations are presented as median (range). Two-tailed paired t-tests were conducted to detect difference in trough levels of antiretroviral drugs between pre- and post-administration of silibinin. GraphPad Prism 6 (GraphPad Software, La Jolla, CA) was used with an alpha of 0.05.

On the set-up of data set [2]: species or system human. The note with it: in vivo; for Median Cmax (Range): human, iv, 20 mg/kg/day. The procedure:
To measure silibinin plasma concentration, the plasma concentrations of silibinin isomers (A and B) and silibinin dihydrogen succinate isomers (A and B) were determined by LC/MS-MS. Of note, the range of plasma concentrations of the LC-MS/MS assay was selected according to the levels reported in the study from Sala et al. Briefly, 100 μl of plasma was added to 20 μl of internal standard naringenin (IS) and extracted by protein precipitation. After evaporation and reconstitution, 20 μL was injected into a Select- HSS T3 (2.1x75 mm, 3.5 μm) (Waters, Milford, MA, USA).
Chromatographic separations were performed using a gradient program with 10 mM ammonium formate containing 0.1% formic acid and acetonitrile with 0.1% formic acid. Analytes were quantified by electrospray ionization-triple quadrupole mass spectrometry using the selected reaction monitoring detection in the negative mode. Importantly, the selected gradient program allows adequate separation to quantify isomers A and B individually. The method has a mean inter-day coefficient of variation (CV) % of <10% and an inter-day deviation from nominal values of <7%.
Of note, the Cmin of isomer A of both silibinin dihydrogen succinate and silibinin were 2- and 7-fold higher than the corresponding values of isomer B [20].

Where [3] appears, read: plasma, paired t-test, ATV/r p = 0.89, RAL p = 0.90, ETV, EFV, DRV/r p = 0.14.

In the case of `Cc1cc(C#N)cc(C)c1Oc1nc(Nc2ccc(C#N)cc2)nc(N)c1Br` [ETV, etravirine], in data set [1] (setting [3]), the “trough level under silibinin coadministration (day 1 vs day 12)” value (“trough level … (day 1 vs day 12)” for short) is listed as “not influenced”.

With darunavir/ritonavir [DRV/r], in data set [1] (setting [3]), the “trough level … (day 1 vs day 12)” value was “not influenced”. As to `COc1cc([C@H]2Oc3cc([C@H]4Oc5cc(O)cc(O)c5C(=O)[C@@H]4O)ccc3O[C@@H]2CO)ccc1O` [Silibinin A], in data set [2], the “Median Cmax (Range)” value is 0.62 (0.29–1.07) μg/mL and the “Cmin of isomer A relative to isomer B” value came to 7 fold.

`COc1cc(C2Oc3cc(C4Oc5cc(O)cc(O)c5C(=O)C4O)ccc3OC2CO)ccc1O` (centres unmarked) [Silibinin B]: the “Median Cmax (Range)” value in data set [2] was 0.25 (0.08–0.78) μg/mL.

Consider atazanavir/ritonavir [ATV/r], for which the “trough level … (day 1 vs day 12)” value in data set [1] (setting [3]) is “not influenced”. On the same count and under the same terms, with `Cc1nnc(C(=O)NC(C)(C)c2nc(C(=O)NCc3ccc(F)cc3)c(O)c(=O)n2C)o1` [RAL, raltegravir] the entry was “not influenced”. Consider `O=C1Nc2ccc(Cl)cc2[C@@](C#CC2CC2)(C(F)(F)F)O1` [EFV, efavirenz], for which the “trough level … (day 1 vs day 12)” value in data set [1] (in vivo) is given as “not influenced”.
